# Measured values published in patent EP0068239A2, “Sulfamoylbenzoic acid derivatives and pharmaceutical compositions comprising same” (MITSUI TOATSU CHEMICALS, Inc., priority 1981, dated 1983).
# How the values were obtained:
# [1] = tested on: rats with DOCA/saline-induced hypertension; experiment: Hypotensive activity in rats with DOCA/saline-induced hypertension (systolic pressure measured indirectly through the caudal artery); format: in vivo, male Wistar rats; details: 30 mg/kg orally once a day for 5 days, versus initial value; for Percent change of systolic pressure Day 1: measured 4 hour after administration on day 1; for Percent change of systolic pressure Day 3: measured 4 hour after administration on day 3; for Percent change of systolic pressure Day 5: measured 4 hour after administration on day 5
# Protocol: Evaluation Test 1 (Hypotensive activity in rats with DOCA/saline-induced hypertension]
# Rats with DOCA/saline-induced hypertension were prepared according to the method described in an article by H. Selye, C.E. Hall and E.M. Rowly tCanadian Medical Association Journal, Vol. 49, p. 88, 1943). More specifically, 5-weeks-old male Wistar rats, weighing 100 to 120 g, were placed under anesthesia with ether and their left kidney was excised. Thereafter, they were allowed to take saline (a 1% aqueous solution of sodium chloride) instead of water. In addition, 10 mg/kg of deoxycorticosterone acetate was subcutaneously administered once a week. After 4-6 weeks, these rats developed hypertension.
# Blood pressure was measured according to the method described in an article by M. Gerold and H. Tschirky (Arzneimittelforschung, Vol. 18, p. 1285, 1968). More specifically, using a Model 8002 or 8005 BP Recorder (W+W Electronic Co.), the systolic pressure of each rat was indirectly measured through the caudal artery. The rats were placed in a high-temperature environment (45±2°C) prior to every measurement. Among the rats (aged 15-17 weeks) with DOCA/saline-induced hypertension, only those showing a systolic pressure of 170 mmHg or above were used in groups of 3 or 4.
# A compound to be tested was suspended in a 0.2% solution of carboxymethyl cellulose and administered orally to the rats in a dose of 30 mg/kg. This administration was performed once a day and continued for 5 days. Blood pressure measurements were made before the administration of the compound and 4 hour after the administration on days 1, 3, and 5.
# anesthetized dogs = experiment: Diuretic effect in anesthetized dogs (urine collection via ureter cannulae); format: in vivo, Adult mongrel dogs; details: for ED100: 10 min, dose at which urine collected for 10 minutes after administration is twice the amount collected for 10 minutes before; for diuretic effect: high dose of 2 mg/kg
# Protocol: Evaluation Test 2 [Diuretic effect in anesthetized dogs3
# Adult mongrel dogs of either sex were used in this experiment. Each dog was anesthetized by intravenous administration of 30 mg/kg of pentobarbital sodium. Thereafter, a midline incision was made in the lower abdominal region and polyethylene cannulae for the collection of urine were inserted into the right and left ureters. In addition, a polyethylene cannula was inserted into the left femoral vein, through which 50 ml of physiological saline was administered. Thirty minutes after that, physiological saline was continuously infused at a rate of 1.5 ml/min. The experiment was started after the rate of urine excretion became constant. A compound to be tested was dissolved in dimethylformamide and administered intravenously by way of the right femoral vein, and blood pressure was surgically monitored by way of the right femoral artery.
# The ED100 of the compound was defined as the dose at which the amount of urine collected for 10 minutes after the administration of the compound was equal to twice the amount of urine collected for 10 minutes before the administration.
# [2] = Canis lupus familiaris, intravenous
SMILES,Percent change of systolic pressure Day 1 [1] [%],Percent change of systolic pressure Day 3 [1] [%],Percent change of systolic pressure Day 5 [1] [%],ED100 (anesthetized dogs; [2]) [mg/kg],diuretic effect (anesthetized dogs; intravenous),"minimal effective dose (anesthetized dogs; Canis lupus familiaris, intravenous, anesthetized dogs, read-out: dose at which the compound began to exert a diuretic effect) [mg/kg]",increase of urine excretion (factor) (anesthetized dogs; intravenous dose of 0.2 mg/kg)
"CC1Cc2ccccc2N1NC(=O)c1cc(S(N)(=O)=O)c(Cl)cc1Cl (stereo not shown) [Example 1, N-(2,4-dichloro-5-sulfamoylbenzamido)-2-methylindoline]",-12,-25,-28,> 2,little diuretic effect,–,–
"CC1Cc2ccccc2N1NC(=O)c1cc(S(N)(=O)=O)c(Cl)cc1Br (stereo not shown) [Example 2, N-(2-bromo-4-chloro-5-sulfamoylbenzamido)-2-methylindoline]",-12,-24,-25,> 2,little diuretic effect,–,–
"CC1Cc2ccccc2N1NC(=O)c1ccc(Cl)c(S(N)(=O)=O)c1 (stereo not shown) [Indapamide, N-(3-sulfamoyl-4-chlorobenzamido)-2-methylindoline, reference compound]",-13,-20,-22,0.2,–,0.05,approximately 2
